Experimental data: patent US20230218558A1, “NOVEL THERAPEUTIC USE OF PLEUROMUTILINS” (priority 2020, published 2023)
Values after ≈ are worked out from the molar mass of the structure shown. Read-outs that look alike come from different tables or passages of the source.

What was measured:
[1] = system: human rhinovirus strain HRV16 strain 11757; test: Inhibition of virus-induced CPE, human rhinovirus in H1-HeLa cells; format: cell-based; conditions: Example 9, rhinovirus HRV1611757, 4 h pretreatment, MOI 0.0005
Procedure: Cell viability determination as well as EC50 and TC50 calculations were performed as described in Examples 1 and 3.

[2] = system: influenza virus strain A/PR/8/34; test: Inhibition of virus-induced CPE, influenza virus in MDCK cells; format: cell-based
[3] = system: influenza A/Puerto Rico/8/34 (H1N1); format: in vivo, BALB/c mice; conditions: for effect on bodyweight / bodyweight loss: SC, investigated doses, FIG. 7A; for lung viral titre (TCID50 on MDCK cells): Day 3 and Day 6, Lefamulin at both doses, compared with vehicle treated control
MDCK cells = conditions: Example 10; for CC50: read-out: TC50, MDCK cells
HeLa cells = test: Cell viability, HeLa cells, XTT; conditions: read-out: TC50, Example 6
Huh7 cells = test: Cell viability, Huh7 cells, XTT
HEp2 cells = test: Cell viability of uninfected drug control wells, HEp2 cells, XTT; conditions: Example 3
MRC-5 cells [4] = test: Cell viability of uninfected drug control wells, MRC-5 cells, XTT; conditions: Example 1; for cytotoxic effect on the viability of the cell control: concentration 10 μM (b103 prints 10 M for Lefamulin); for cytotoxic effect: concentration 50 μM
[5] = system: influenza A virus strain (PR8); conditions: concentration of 2 mg/mL; cited from earlier work
polio virus = conditions: cited from earlier work
[6] = system: herpes simplex type 1 (HSV-1) virus; conditions: cited from earlier work
[7] = system: vesicular stomatitis virus (VSV); conditions: cited from earlier work
MRC-5 cells [8] = conditions: human
[9] = system: Measles virus strain Edmonston; test: microbe, parasite or virus in culture; format: cell-based; conditions: Measles morbillivirus, HeLa
[10] = system: influenza A virus, porcine reproductive and respiratory syndrome virus (PRRSV) type 1 and 2; conditions: WO 2009/106839; 4 hours post inoculation; cited from earlier work
[11] = high dose: 105 mg/kg/day SC in three injections until day 3, then 70 mg/kg twice daily
[12] = read-out: TC50, Example 8, Zika experiment

## C=C[C@]1(C)C[C@@H](OC(=O)CS[C@@H]2CC[C@@H](N)C[C@H]2O)[C@]2(C)C(C)CC[C@]3(CCC(=O)[C@H]32)[C@@H](C)[C@@H]1O (stereo partly drawn) [Lefamulin, 14-O-{[(1R, 2R, 4R)-4-amino-2-hydroxy-cyclohexylsulfanyl]-acetyl}-mutilin]
[1]
  EC50: 9.34 µM
[2]
  EC50: > 23.8 µM
[3]; BALB/c mice
  effect on bodyweight / bodyweight loss: did not have a significant effect
[3]
  lung viral titre (TCID50 on MDCK cells): reduced lung viral titres
[3]; [11]
  clinical scores compared to vehicle: increase in clinical scores
  survival compared to vehicle: decrease in survival
[3]; high dose, Day 6 lungs, compared to vehicle
  bronchial degeneration and alveolar inflammation (histopathology): significant reduction
[3]; high dose, Day 6 lungs, compared to vehicle treated control
  overall histopathology score: overall significant reduction
[3]; lower dose: 35 mg/kg SC twice daily (70 mg/kg/day), until day 6
  survival: 90%
MDCK cells
  concentrations cytotoxic to MDCK cells: greater than 23 μM
  CC50: 23.8 µM
HeLa cells
  CC50: 72.7 µM
Huh7 cells; read-out: TC50, Example 7, Dengue experiment
  CC50: 23.3 µM
Huh7 cells; [12]
  CC50: 23.4 µM
HEp2 cells; concentration 100 μM
  cytotoxic effect: cytotoxic effect
HEp2 cells; concentrations 10 μM and 50 μM
  cytotoxic effect on the viability of the cell control: no cytotoxic effect
MRC-5 cells [4]
  cytotoxic effect on the viability of the cell control: no cytotoxic effect
  cytotoxic effect: cytotoxic effect
MRC-5 cells [4]; uninfected MRC-5 cells, 6 days
  TC50: 55.3 µM

## CCOC(=O)C1=C[C@@H](OC(CC)CC)[C@H](NC(C)=O)[C@@H](N)C1 [Oseltamivir]
[2]
  EC50: 0.06 µM
[3]; BALB/c mice
  effect on bodyweight / bodyweight loss: reduction
[3]; BALB/c mice, positive control treatment, FIG. 7B
  clinical scores: reduction
[3]
  lung viral titre (TCID50 on MDCK cells): reduced lung viral titres
MDCK cells
  CC50: > 200 µM

## C=C[C@]1(C)C[C@@H](OC(=O)CO)[C@]2(C)[C@H](C)CC[C@]3(CCC(=O)[C@H]32)[C@@H](C)[C@@H]1O [Pleuromutilin]
[5]
  antiviral activity: antiviral activity
Polio virus
  antiviral activity: did not show antiviral activity
[6]
  concentration that conferred a 50% protection of the cytopathic effect induced by HSV-1 (CPE50): 15 µg/mL
[6]; read-out: concentration that conferred a 50% protection of the cytopathic effect induced by HSV-1 (CPE50)
  EC50: 40 µM
[7]
  activity against vesicular stomatitis virus: activity

## CCC(CC)COC(=O)[C@H](C)N[P@](=O)(OC[C@H]1O[C@@](C#N)(c2ccc3c(N)ncnn23)[C@H](O)[C@@H]1O)Oc1ccccc1 [Remdesivir]
MRC-5 cells [8]
  CC50: > 5 µM

## NC(=O)c1ncn([C@@H]2O[C@H](CO)[C@@H](O)[C@H]2O)n1 [Ribavirin]
[9]
  EC50: 1.88 µg/mL (≈ 7.7 µM)

## CCOC(=O)/C=C/[C@H](C[C@@H]1CCNC1=O)NC(=O)[C@@H](CC(=O)[C@@H](NC(=O)c1cc(C)on1)C(C)C)Cc1ccc(F)cc1 [Rupintrivir]
[1]
  EC50: 0.0049 µM

## CC(C)OC(=O)[C@H](C)N[P@](=O)(OC[C@H]1O[C@@H](n2ccc(=O)[nH]c2=O)[C@](C)(F)[C@@H]1O)Oc1ccccc1 [Sofosbuvir]
Huh7 cells; [12]
  CC50: > 10 µM

## C=C[C@]1(C)C[C@@H](OC(=O)CSCCN(CC)CC)[C@]2(C)[C@H](C)CC[C@]3(CCC(=O)[C@H]32)[C@@H](C)[C@@H]1O [Tiamulin]
MRC-5 cells [8]; 6 days
  CC50: 62.9 µM
HEp2 cells; concentration 10 μM
  viability: 84%
HEp2 cells; concentration 50 μM
  viability: 70.0%
MRC-5 cells [4]
  cytotoxic effect on the viability of the cell control: no cytotoxic effect was observed
  cytotoxic effect: a cytotoxic effect was observed

## C=C[C@]1(C)C[C@@H](OC(=O)CSC(C)(C)CNC(=O)[C@H](N)C(C)C)[C@]2(C)[C@H](C)CC[C@]3(CCC(=O)[C@H]32)[C@@H](C)[C@@H]1O [Valnemulin]
[10]
  antiviral activity: did not exhibit antiviral activity
